Several values for one entry are separate records, joined by “and”; a condition that tells them apart may be missing. Equal values may be shown once.
Details: for surface tension liquid-gas: Drop volume; for viscosity / speed of sound / mass density: Liquid; for viscosity: Capillary tube (Ostwald / Ubbelohde) method; for speed of sound: Frequency=3 MHz, Single path-length method; for mass density: Vibrating tube method

O=Cc1cccs1 [2-thiophenealdehyde]
Details	surface tension liquid-gas [mN/m]
283.15 K	47.82
285.65 K	47.52
288.15 K	47.22
290.65 K	46.92
293.15 K	46.6
295.65 K	46.27
298.15 K	45.99
300.65 K	45.68
303.15 K	45.4
305.65 K	45.08
308.15 K	44.75
310.65 K	44.48
313.15 K	44.17

Details	mass density	speed of sound [m/s]	viscosity [mPa·s]
283.15 K, 100 kPa	1232.44 kg/m3 and 1232.47 kg/m3	1512.8	2.796
283.15 K, 2000 kPa	1233.56 kg/m3	–	–
283.15 K, 5000 kPa	1235.26 kg/m3	–	–
283.15 K, 7000 kPa	1236.39 kg/m3	–	–
283.15 K, 10000 kPa	1238.06 kg/m3	–	–
283.15 K, 15000 kPa	1240.76 kg/m3	–	–
283.15 K, 20000 kPa	1243.38 kg/m3	–	–
283.15 K, 25000 kPa	1245.94 kg/m3	–	–
283.15 K, 30000 kPa	1248.47 kg/m3	–	–
283.15 K, 35000 kPa	1250.93 kg/m3	–	–
283.15 K, 40000 kPa	1253.33 kg/m3	–	–
283.15 K, 45000 kPa	1255.69 kg/m3	–	–
283.15 K, 50000 kPa	1258.02 kg/m3	–	–
283.15 K, 55000 kPa	1260.26 kg/m3	–	–
283.15 K, 60000 kPa	1262.44 kg/m3	–	–
283.15 K, 65000 kPa	1264.58 kg/m3	–	–
285.65 K, 100 kPa	1229.92 kg/m3	1504.3	2.661
288.15 K, 100 kPa	1227.39 kg/m3	1495.9	2.513
288.15 K, 2000 kPa	1228.51 kg/m3	–	–
288.15 K, 5000 kPa	1230.24 kg/m3	–	–
288.15 K, 7000 kPa	1231.38 kg/m3	–	–
288.15 K, 10000 kPa	1233.07 kg/m3	–	–
288.15 K, 15000 kPa	1235.82 kg/m3	–	–
288.15 K, 20000 kPa	1238.51 kg/m3	–	–
288.15 K, 25000 kPa	1241.13 kg/m3	–	–
288.15 K, 30000 kPa	1243.69 kg/m3	–	–
288.15 K, 35000 kPa	1246.2 kg/m3	–	–
288.15 K, 40000 kPa	1248.64 kg/m3	–	–
288.15 K, 45000 kPa	1251.04 kg/m3	–	–
288.15 K, 50000 kPa	1253.38 kg/m3	–	–
288.15 K, 55000 kPa	1255.68 kg/m3	–	–
288.15 K, 60000 kPa	1257.93 kg/m3	–	–
288.15 K, 65000 kPa	1260.14 kg/m3	–	–
290.65 K, 100 kPa	1224.88 kg/m3	1487.4	2.386
293.15 K, 100 kPa	1222.35 kg/m3 and 1222.36 kg/m3	1479.1	2.267
293.15 K, 2000 kPa	1223.5 kg/m3	–	–
293.15 K, 5000 kPa	1225.27 kg/m3	–	–
293.15 K, 7000 kPa	1226.44 kg/m3	–	–
293.15 K, 10000 kPa	1228.16 kg/m3	–	–
293.15 K, 15000 kPa	1230.98 kg/m3	–	–
293.15 K, 20000 kPa	1233.73 kg/m3	–	–
293.15 K, 25000 kPa	1236.41 kg/m3	–	–
293.15 K, 30000 kPa	1239.02 kg/m3	–	–
293.15 K, 35000 kPa	1241.57 kg/m3	–	–
293.15 K, 40000 kPa	1244.07 kg/m3	–	–
293.15 K, 45000 kPa	1246.51 kg/m3	–	–
293.15 K, 50000 kPa	1248.9 kg/m3	–	–
293.15 K, 55000 kPa	1251.24 kg/m3	–	–
293.15 K, 60000 kPa	1253.53 kg/m3	–	–
293.15 K, 65000 kPa	1255.77 kg/m3	–	–
295.65 K, 100 kPa	1219.84 kg/m3	1470.8	2.162
298.15 K, 100 kPa	1217.32 kg/m3	1462.4	2.053
298.15 K, 2000 kPa	1218.49 kg/m3	–	–
298.15 K, 5000 kPa	1220.31 kg/m3	–	–
298.15 K, 7000 kPa	1221.5 kg/m3	–	–
298.15 K, 10000 kPa	1223.27 kg/m3	–	–
298.15 K, 15000 kPa	1226.15 kg/m3	–	–
298.15 K, 20000 kPa	1228.95 kg/m3	–	–
298.15 K, 25000 kPa	1231.69 kg/m3	–	–
298.15 K, 30000 kPa	1234.36 kg/m3	–	–
298.15 K, 35000 kPa	1236.96 kg/m3	–	–
298.15 K, 40000 kPa	1239.51 kg/m3	–	–
298.15 K, 45000 kPa	1242 kg/m3	–	–
298.15 K, 50000 kPa	1244.43 kg/m3	–	–
298.15 K, 55000 kPa	1246.81 kg/m3	–	–
298.15 K, 60000 kPa	1249.14 kg/m3	–	–
298.15 K, 65000 kPa	1251.43 kg/m3	–	–
300.65 K, 100 kPa	1214.8 kg/m3	1454	1.96
303.15 K, 100 kPa	1212.28 kg/m3 and 1212.29 kg/m3	1445.7	1.875
303.15 K, 2000 kPa	1213.48 kg/m3	–	–
303.15 K, 5000 kPa	1215.34 kg/m3	–	–
303.15 K, 7000 kPa	1216.56 kg/m3	–	–
303.15 K, 10000 kPa	1218.37 kg/m3	–	–
303.15 K, 15000 kPa	1221.32 kg/m3	–	–
303.15 K, 20000 kPa	1224.19 kg/m3	–	–
303.15 K, 25000 kPa	1226.98 kg/m3	–	–
303.15 K, 30000 kPa	1229.71 kg/m3	–	–
303.15 K, 35000 kPa	1232.36 kg/m3	–	–
303.15 K, 40000 kPa	1234.96 kg/m3	–	–
303.15 K, 45000 kPa	1237.49 kg/m3	–	–
303.15 K, 50000 kPa	1239.97 kg/m3	–	–
303.15 K, 55000 kPa	1242.4 kg/m3	–	–
303.15 K, 60000 kPa	1244.77 kg/m3	–	–
303.15 K, 65000 kPa	1247.09 kg/m3	–	–
305.65 K, 100 kPa	1209.76 kg/m3	1437.3	1.797
308.15 K, 100 kPa	1207.25 kg/m3	1429	1.728
308.15 K, 2000 kPa	1208.47 kg/m3	–	–
308.15 K, 5000 kPa	1210.38 kg/m3	–	–
308.15 K, 7000 kPa	1211.63 kg/m3	–	–
308.15 K, 10000 kPa	1213.48 kg/m3	–	–
308.15 K, 15000 kPa	1216.49 kg/m3	–	–
308.15 K, 20000 kPa	1219.43 kg/m3	–	–
308.15 K, 25000 kPa	1222.28 kg/m3	–	–
308.15 K, 30000 kPa	1225.06 kg/m3	–	–
308.15 K, 35000 kPa	1227.77 kg/m3	–	–
308.15 K, 40000 kPa	1230.42 kg/m3	–	–
308.15 K, 45000 kPa	1233 kg/m3	–	–
308.15 K, 50000 kPa	1235.53 kg/m3	–	–
308.15 K, 55000 kPa	1238 kg/m3	–	–
308.15 K, 60000 kPa	1240.41 kg/m3	–	–
308.15 K, 65000 kPa	1242.78 kg/m3	–	–
310.65 K, 100 kPa	1204.73 kg/m3	1420.7	1.654
313.15 K, 100 kPa	1202.21 kg/m3	1412.4	1.59
313.15 K, 2000 kPa	1203.46 kg/m3	–	–
313.15 K, 5000 kPa	1205.41 kg/m3	–	–
313.15 K, 7000 kPa	1206.7 kg/m3	–	–
313.15 K, 10000 kPa	1208.59 kg/m3	–	–
313.15 K, 15000 kPa	1211.67 kg/m3	–	–
313.15 K, 20000 kPa	1214.67 kg/m3	–	–
313.15 K, 25000 kPa	1217.59 kg/m3	–	–
313.15 K, 30000 kPa	1220.43 kg/m3	–	–
313.15 K, 35000 kPa	1223.19 kg/m3	–	–
313.15 K, 40000 kPa	1225.89 kg/m3	–	–
313.15 K, 45000 kPa	1228.52 kg/m3	–	–
313.15 K, 50000 kPa	1231.1 kg/m3	–	–
313.15 K, 55000 kPa	1233.61 kg/m3	–	–
313.15 K, 60000 kPa	1236.07 kg/m3	–	–

Source: the NIST ThermoML archive (doi:10.1016/j.jct.2017.07.008)
